The values that follow come from patent publication US12708607B2, “Thromboxane receptor antagonist formulations” (ATXA THERAPEUTICS LIMITED, priority 2020, dated 2026).

The test system of data set [1] is TP (thromboxane A2 receptor). Briefly: whole blood platelet aggregation ex vivo after oral dosing, U46619-induced. The format is in vivo, cynomolgus monkey. The settings on record: 100 mg/kg BID oral, Day 14; 1 μM U46619. As to the method: (§1) Whole blood platelet aggregation assays were performed ex vivo in blood samples taken from the NHPs (n=3) administered 100 mg/kg NTP42:KVA4, BID (200 mg/kg/day) for 14 days. In this type of platelet aggregation assay, a reduction in platelet numbers is indicative of platelet aggregation. Blood was collected prior to (pre-dose), and at 45 min- and 24 h-following the first daily dose, and platelet numbers determined in blood samples at baseline (untreated), and in blood samples incubated with drug vehicle, the thromboxane mimetic, U46619 or, as control, other platelet agonists (e.g., ADP, collagen, thrombin, ristocetin, epinephrine). Baseline platelet counts ranged from 120-190×10^3 platelets/μl.
(§2) Whole blood platelet aggregation assays were performed ex vivo in blood samples taken from the NHPs (n=3) administered 100 mg/kg NTP42:KVA4, BID (200 mg/kg/day) for 14 days. Blood was collected prior to (pre-dose), and at 45 min- and 24 h-following the first daily dose, and platelet numbers determined in blood samples at baseline (untreated), and in blood samples incubated with drug vehicle, the thromboxane mimetic, U46619 or, as control, 50 μM ADP. In this assay, a reduction in platelet numbers is indicative of platelet aggregation.

Data set [2] relates to platelet aggregation induced by other platelet agonists. Put plainly: whole blood platelet aggregation ex vivo after oral dosing, other platelet agonists (e.g. 50 μM ADP). Conditions: 100 mg/kg BID oral, Day 14. The format is in vivo, cynomolgus monkey. As to the method:
as §1, §2

Data set [3] is described as follows: NTP42 levels in NHP plasma after repeat oral dosing. The format is in vivo, cynomolgus monkey. Conditions: for Cmax at 14 days: cynomolgus monkey, plasma, oral, 14 days repeat dosing of NTP42:KVA4 at 200 mg/kg/day.
The subject of data set [4] is MCT-induced PAH. The settings on record: Mulvaney et al. 2020; cited from earlier work.
Data set [5] has as its system Su/Hx-induced PAH. Conditions: Mulvaney et al. 2020; cited from earlier work.

Molecules are shown by their SMILES. Where two headings read alike, the source gives them in different places.

One may read the Cmax as the highest concentration seen after dosing. Regarding `CC(C)(C)NC(=O)NS(=O)(=O)c1cc(C#N)ccc1Oc1cccc(-c2ccc(OC(F)F)cc2)c1` [NTP42], the “TXA2 (U46619)-induced / TP-mediated platelet aggregation ex vivo” value in data set [1] is given as “selectively inhibited”. Further, the “aggregation induced by other platelet agonists” value in data set [2] was “did not affect”. Moreover, the “NTP42 levels in NHP plasma 24 h post-dosing” value in data set [3] (24 h post-dosing, 200 mg/kg/day for 14 days) is “still detectable”. In addition, the Cmax at 14 days in data set [3] (read-out: Cmax of NTP42 in NHP plasma) is 13200 ng/mL; in data set [3] (read-out: Cmax of NTP42 in NHP plasma, molar equivalent), 25 µM. The “NTP42 in NHP plasma prior to the first daily dose” value in data set [3] (pre-dose, Day 14) is listed as “present”. Besides, the “efficacy of non-formulated drug in MCT-induced model of PAH” value in data set [4] is listed as “has shown efficacy”. Moreover, in data set [5], the “efficacy of non-formulated drug in Su/Hx-induced model of PAH” value is “has shown efficacy”.
